Among the test systems are EKVX NSCLC; MDA-MB-435; SR leukemia; MDA-N; LOX IMVI melanoma; HS 578T breast; MCF7 breast; 786-0 renal; SF-268 CNS; COLO 205 colon; A498 renal.
Holding throughout (assay): NCI-60 cell line screen, 48 h

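Results reflect a 48-hour exposure of cells in 96-well plates to compound at five concentrations. TGI: total growth inhibition.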 A value given as a limit tells only on which side of the number the result lay.

Turning to `CC12CC1C(c1cccc([N+](=O)[O-])c1)(c1cccc([N+](=O)[O-])c1)N=N2` (stereo unspecified), the TGI in the assay with EKVX NSCLC was over 100 µM; with MDA-MB-435, over 100 µM; in the assay on SR leukemia it was 55.8 µM; with MDA-N, 50.5 µM; with LOX IMVI melanoma it was 27.8 µM; in the assay with HS 578T breast, 78 µM. Also, the TGI in the assay with MCF7 breast was over 100 µM; with 786-0 renal, 52.7 µM; in the assay on SF-268 CNS, over 100 µM; in the assay on COLO 205 colon, 41.5 µM; in the assay with A498 renal, over 100 µM.

As to `OC1(c2ccc(Cl)cc2)c2ccc(CN3CCCC3)cc2C2=NCCN21` (stereo unspecified), the TGI in the assay with EKVX NSCLC stood at 32.7 µM; in the assay on MDA-MB-435, 23.5 µM; in the assay with SR leukemia it was 33.1 µM; in the assay on MDA-N, 22.8 µM; in the assay on LOX IMVI melanoma it was 29.1 µM; in the assay on HS 578T breast, 26 µM. Moreover, the TGI in the assay with MCF7 breast worked out at 33.4 µM; in the assay with 786-0 renal, 28.6 µM; in the assay with SF-268 CNS, 29.7 µM; in the assay with COLO 205 colon it was 22.7 µM; in the assay with A498 renal, 25.8 µM.

Consider `O=C1CCCc2cc3c(cc21)CC1(C3)Cc2ccc3c(c2C1)C(=O)CCC3` (stereo unspecified), for which the TGI in the assay with EKVX NSCLC is over 100 µM; in the assay with MDA-MB-435 it was 23.8 µM; in the assay on SR leukemia, 40.3 µM; in the assay on MDA-N it was 26.1 µM; with LOX IMVI melanoma, over 100 µM; in the assay with HS 578T breast it was over 100 µM. Besides, the TGI was 42.8 µM in the assay on MCF7 breast; over 100 µM in the assay on 786-0 renal; over 100 µM in the assay with SF-268 CNS; 34.9 µM with COLO 205 colon; over 100 µM with A498 renal.

As to `Nc1nc(Nc2ccccc2)sc1C(=O)c1c[nH]c2ccccc12`, the TGI in the assay with EKVX NSCLC stood at 27.4 µM; in the assay with MDA-MB-435, 23.2 µM; in the assay on SR leukemia, 5.12 µM; in the assay on MDA-N it was 25.3 µM; with LOX IMVI melanoma, 64.8 µM; in the assay on HS 578T breast, 42.5 µM. For the same compound, the TGI is 26.9 µM with MCF7 breast; 18.2 µM with 786-0 renal; 33.8 µM in the assay on SF-268 CNS; 17.1 µM in the assay on COLO 205 colon; 30.6 µM in the assay on A498 renal.

`COC(=O)c1cc2c(cc1CC(Cc1ccc3c(c1)CCC3)C(=O)OC)CCC2` (stereo unspecified): the TGI was over 100 µM in the assay on EKVX NSCLC; over 100 µM in the assay on MDA-MB-435; 57.4 µM in the assay on SR leukemia; over 100 µM in the assay with MDA-N; over 100 µM in the assay on LOX IMVI melanoma; over 100 µM with HS 578T breast. Besides, the TGI with MCF7 breast was 92.7 µM; in the assay on 786-0 renal it was over 100 µM; in the assay with SF-268 CNS, over 100 µM; in the assay with COLO 205 colon it was over 100 µM; in the assay on A498 renal, over 100 µM.

With `Nc1nc(Nc2ccc(Cl)cc2)sc1C(=O)c1cccs1`, the TGI with EKVX NSCLC was 69.7 µM; in the assay on MDA-MB-435, over 100 µM; in the assay with SR leukemia, 14.9 µM; in the assay on MDA-N it was over 100 µM; with LOX IMVI melanoma, over 100 µM; in the assay on HS 578T breast, 42.2 µM. Besides, the TGI was over 100 µM in the assay with MCF7 breast; over 100 µM in the assay with 786-0 renal; 83.4 µM in the assay with SF-268 CNS; over 100 µM in the assay with COLO 205 colon; 72.9 µM with A498 renal.

Take `COc1cc(OCc2ccc3nc(OC)c(OC)nc3c2)cc(OC)c1OC`: the TGI with EKVX NSCLC, with MDA-MB-435, in the assay on SR leukemia, with MDA-N, in the assay with LOX IMVI melanoma and with HS 578T breast was over 10 µM in each case. Moreover, the TGI in the assay on MCF7 breast, in the assay on 786-0 renal, in the assay with SF-268 CNS, in the assay on COLO 205 colon and in the assay with A498 renal was over 10 µM each time.

As for `COC(=O)C1(Cc2ccc3c(c2)CCC3)Cc2cc3c(cc2C1)CCC3`, the TGI was over 100 µM in the assay with EKVX NSCLC; over 100 µM with MDA-MB-435; over 100 µM in the assay with SR leukemia; over 100 µM with MDA-N; 42.3 µM in the assay with LOX IMVI melanoma; over 100 µM in the assay with HS 578T breast. Further, the TGI in the assay on MCF7 breast was 58.5 µM; with 786-0 renal it was over 100 µM; with SF-268 CNS, over 100 µM; in the assay with COLO 205 colon, over 100 µM; with A498 renal, over 100 µM.

For `COc1c(O)c(O)cc2c1-c1ccc(OC)c(=O)cc1C(NC(C)=O)CC2` (stereo unspecified), the TGI in the assay with EKVX NSCLC was 98.2 µM; in the assay with MDA-MB-435 it was 3.75 µM; with SR leukemia, over 100 µM; with MDA-N it was 4.84 µM; with LOX IMVI melanoma it was 20.6 µM; in the assay on HS 578T breast it was over 24.9 µM. Moreover, the TGI is 11.9 µM in the assay with MCF7 breast; 74.8 µM in the assay with 786-0 renal; over 95.2 µM in the assay with SF-268 CNS; 9.07 µM with COLO 205 colon; 89 µM in the assay with A498 renal.

In the case of `N#Cc1c(C#N)c(-c2ccccc2)n(-c2ccccc2)c1N`, the TGI with EKVX NSCLC, with MDA-MB-435, with SR leukemia, in the assay with MDA-N, in the assay with LOX IMVI melanoma and in the assay with HS 578T breast was over 100 µM each time. Also, the TGI in the assay with MCF7 breast, with 786-0 renal, in the assay with SF-268 CNS, with COLO 205 colon and in the assay with A498 renal was over 100 µM each time.

Turning to `CC(C)CCn1nc(N)c2nc3ccccc3nc21`, the TGI with EKVX NSCLC, in the assay with MDA-MB-435, in the assay on SR leukemia, with MDA-N, in the assay on LOX IMVI melanoma and in the assay on HS 578T breast was over 100 µM each time. Moreover, the TGI in the assay on MCF7 breast, in the assay with 786-0 renal, with SF-268 CNS and in the assay on A498 renal was over 100 µM each time.

As to `COc1ccc(/C=N/N2C(=O)c3c(N)c(C#N)c(-c4ccccc4)c(-c4ccccc4)c3C2=O)cc1`, the TGI with EKVX NSCLC, in the assay with MDA-MB-435, with SR leukemia, in the assay with MDA-N, with LOX IMVI melanoma and in the assay with HS 578T breast was over 100 µM in each case. Moreover, the TGI in the assay on MCF7 breast, in the assay with 786-0 renal, in the assay with SF-268 CNS, in the assay on COLO 205 colon and in the assay on A498 renal was over 100 µM each time.

These data come from PubChem BioAssay (NCI).
